From ChEMBL document CHEMBL1157917, “Structure-based rational design, synthesis and antifungal activity of oxime-containing azole derivatives” (2010)
Converted amounts (≈) assume the structure as drawn.

Columns and labels:
Type in all cases: functional
Trichophyton rubrum = assay: Antifungal activity against Trichophyton rubrum after 7 days by serial dilution method; conditions: 168 h
Candida albicans = assay: Antifungal activity against Candida albicans after 24 hrs by serial dilution method
Cryptococcus neoformans = assay: Antifungal activity against Cryptococcus neoformans after 72 hrs by serial dilution method
Aspergillus fumigatus = assay: Antifungal activity against Aspergillus fumigatus after 7 days by serial dilution method; conditions: 168 h
Candida parapsilosis = assay: Antifungal activity against Candida parapsilosis after 24 hrs by serial dilution method; conditions: Lodderomyces parapsilosis
Candida tropicalis = assay: Antifungal activity against Candida tropicalis after 24 hrs by serial dilution method
Pichia kudriavzevii = assay: Antifungal activity against Candida krusei after 24 hrs by serial dilution method

Row | SMILES | MIC80 (Trichophyton rubrum) [µg/mL] | MIC80 (Candida albicans) [µg/mL] | MIC80 (Cryptococcus neoformans) [µg/mL] | MIC80 (Aspergillus fumigatus) [µg/mL] | MIC80 (Candida parapsilosis) [µg/mL] | MIC80 (Candida tropicalis) [µg/mL] | MIC80 (Pichia kudriavzevii) [µg/mL]
1 | OC(Cn1cncn1)(Cn1cncn1)c1ccc(F)cc1F [FLUCONAZOLE] | 1 (≈ 3.27 µM) | 0.25 (≈ 0.816 µM) | 0.0625 (≈ 0.204 µM) | > 64 | 0.25 (≈ 0.816 µM) | 1 (≈ 3.27 µM) | 1 (≈ 3.27 µM)
2 | OC(CN1CCC(=NOCc2ccc3ccccc3c2)CC1)(Cn1cncn1)c1ccc(F)cc1F (racemic) | 0.0625 (≈ 0.127 µM) | 0.016 (≈ 0.0326 µM) | 0.016 (≈ 0.0326 µM) | 1 (≈ 2.03 µM) | 0.016 (≈ 0.0326 µM) | 0.016 (≈ 0.0326 µM) | 0.25 (≈ 0.509 µM)
3 | COc1cccc(CON=C2CCN(CC(O)(Cn3cncn3)c3ccc(F)cc3F)CC2)c1 (racemic) | 16 (≈ 33.9 µM) | 16 (≈ 33.9 µM) | 16 (≈ 33.9 µM) | 64 (≈ 136 µM) | 64 (≈ 136 µM) | 64 (≈ 136 µM) | 64 (≈ 136 µM)
4 | CCC(C)n1ncn(-c2ccc(N3CCN(c4ccc(OCC5COC(Cn6cncn6)(c6ccc(Cl)cc6Cl)O5)cc4)CC3)cc2)c1=O (stereo not given) [ITRACONAZOLE] | 0.004 (≈ 0.00567 µM) | 0.016 (≈ 0.0227 µM) | 0.004 (≈ 0.00567 µM) | 1 (≈ 1.42 µM) | 0.0625 (≈ 0.0886 µM) | 0.0625 (≈ 0.0886 µM) | 0.25 (≈ 0.354 µM)
5 | Cc1cccc(CON=C2CCN(CC(O)(Cn3cncn3)c3ccc(F)cc3F)CC2)c1 (racemic) | 16 (≈ 35.1 µM) | 16 (≈ 35.1 µM) | 16 (≈ 35.1 µM) | 64 (≈ 141 µM) | 64 (≈ 141 µM) | 64 (≈ 141 µM) | 64 (≈ 141 µM)
6 | COc1ccc(CON=C2CCN(CC(O)(Cn3cncn3)c3ccc(F)cc3F)CC2)cc1 (racemic) | 4 (≈ 8.48 µM) | 1 (≈ 2.12 µM) | 4 (≈ 8.48 µM) | 64 (≈ 136 µM) | 4 (≈ 8.48 µM) | 4 (≈ 8.48 µM) | 4 (≈ 8.48 µM)
7 | OC(CN1CCC(=NOCc2cccc(Cl)c2)CC1)(Cn1cncn1)c1ccc(F)cc1F (racemic) | 0.016 (≈ 0.0336 µM) | 0.016 (≈ 0.0336 µM) | 0.001 (≈ 0.0021 µM) | 1 (≈ 2.1 µM) | 0.0625 (≈ 0.131 µM) | 0.0625 (≈ 0.131 µM) | 0.25 (≈ 0.525 µM)
8 | OC(CN1CCC(=NOCc2ccccc2Br)CC1)(Cn1cncn1)c1ccc(F)cc1F (racemic) | 0.0625 (≈ 0.12 µM) | 0.016 (≈ 0.0307 µM) | 0.004 (≈ 0.00769 µM) | 1 (≈ 1.92 µM) | 0.0625 (≈ 0.12 µM) | 0.004 (≈ 0.00769 µM) | 0.25 (≈ 0.48 µM)
9 | C=Cc1ccc(CON=C2CCN(CC(O)(Cn3cncn3)c3ccc(F)cc3F)CC2)cc1 (racemic) | 16 (≈ 34.2 µM) | 16 (≈ 34.2 µM) | 16 (≈ 34.2 µM) | 64 (≈ 137 µM) | 64 (≈ 137 µM) | 64 (≈ 137 µM) | 64 (≈ 137 µM)
10 | OC(CN1CCC(=NOCc2ccc(C(F)(F)F)cc2)CC1)(Cn1cncn1)c1ccc(F)cc1F (racemic) | 16 (≈ 31.4 µM) | 16 (≈ 31.4 µM) | 16 (≈ 31.4 µM) | 64 (≈ 126 µM) | 64 (≈ 126 µM) | 64 (≈ 126 µM) | 64 (≈ 126 µM)
11 | OC(CN1CCC(=NOCc2ccc(Cl)cc2)CC1)(Cn1cncn1)c1ccc(F)cc1F (racemic) | 0.0625 (≈ 0.131 µM) | 0.0625 (≈ 0.131 µM) | 0.001 (≈ 0.0021 µM) | 1 (≈ 2.1 µM) | 0.016 (≈ 0.0336 µM) | 0.0625 (≈ 0.131 µM) | 0.25 (≈ 0.525 µM)
12 | OC(CN1CCC(=NOCc2cccc3ccccc23)CC1)(Cn1cncn1)c1ccc(F)cc1F (racemic) | 0.25 (≈ 0.509 µM) | 0.0625 (≈ 0.127 µM) | 0.0625 (≈ 0.127 µM) | 1 (≈ 2.03 µM) | 0.0625 (≈ 0.127 µM) | 0.25 (≈ 0.509 µM) | 4 (≈ 8.14 µM)
13 | ON=C1CCN(CC(O)(Cn2cncn2)c2ccc(F)cc2F)CC1 (stereo not given) | 16 (≈ 45.5 µM) | 1 (≈ 2.85 µM) | 1 (≈ 2.85 µM) | > 64 | 16 (≈ 45.5 µM) | 1 (≈ 2.85 µM) | 4 (≈ 11.4 µM)
14 | OC(CN1CCC(=NOCc2ccc(Br)cc2)CC1)(Cn1cncn1)c1ccc(F)cc1F (racemic) | 0.016 (≈ 0.0307 µM) | 0.016 (≈ 0.0307 µM) | 0.016 (≈ 0.0307 µM) | 1 (≈ 1.92 µM) | 0.016 (≈ 0.0307 µM) | 0.004 (≈ 0.00769 µM) | 0.25 (≈ 0.48 µM)
15 | OC(CN1CCC(=NOCc2cccc(Br)c2)CC1)(Cn1cncn1)c1ccc(F)cc1F (racemic) | 0.0625 (≈ 0.12 µM) | 0.016 (≈ 0.0307 µM) | 0.016 (≈ 0.0307 µM) | 1 (≈ 1.92 µM) | 0.016 (≈ 0.0307 µM) | 0.004 (≈ 0.00769 µM) | 0.25 (≈ 0.48 µM)
